Like-named read-outs stand apart in the source and are kept apart here.

Data set [1] relates to cancer cell lines with wild-type p53 / mutated or deleted p53 (ATCC). Briefly: Cell growth assay (WST-8), other cancer cell lines. The data set is classed as cell-based. (Formazan colour is commonly taken as a measure of viable cells.)
In data set [2] the test system is Isogenic HCT-116 colon cancer cell lines. Kind of data set: cells. The data set is classed as cell-based.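 Further: cells grown in 96-well plates in McCoy's 5A medium with 10% FBS, exposed to compound for 4 days.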
Procedure: Cells were seeded in 96-well flat bottom cell culture plates at a density of 2−3×10^3 cells/well with compounds and incubated for 4 days.
The nature of data set [3]: In vitro microsomal stability, rat. It counts as in vitro ADME.
The mark [4] stands for this setting: Homo sapiens, LNCaP, Table 19A, LNCAP cells, p53 wild-type, cell growth, read-out: LNCAP (p53 wild-type) IC50.
Setting [5] is: Homo sapiens, PC-3, Table 19A, PC-3 cells, deleted p53, cell growth, read-out: PC-3 (deleted p53) IC50.
The mark [6] stands for this setting: Homo sapiens, SJSA-1, Table 19A, SJSA-1 cells, p53 wild-type, cell growth, read-out: SJSA-1 (p53 wild-type) IC50.
[7] abbreviates: Homo sapiens, HCT-116, read-out: HCT-116 (p53-/-) IC50, Table 19A, HCT-116 p53-/-, cell growth.
Setting [8] is: Homo sapiens, HCT-116, read-out: HCT-116 (p53 wild-type) IC50, Table 19A, HCT-116 p53 wild-type, cell growth.
Where [9] appears, read: Homo sapiens, LNCaP, read-out: LNCAP (p53 wild-type) IC50.
The mark [10] stands for this setting: Homo sapiens, SJSA-1, read-out: SJSA-1 (p53 wild-type) IC50.
Where [11] appears, read: read-out: SJSA-1 (p53 wild-type) IC50.
Where [12] appears, read: Homo sapiens, LNCaP, Table 19B, LNCaP cells, read-out: Inhibition of cell growth IC50, LNCaP.
The mark [13] stands for this setting: Homo sapiens, HCT-116, read-out: Inhibition of cell growth IC50, HCT116 p53 WT, Table 19B, HCT116 p53 WT.
Where [14] appears, read: Homo sapiens, PC-3, read-out: PC-3 (deleted p53) IC50.
The mark [15] stands for this setting: Homo sapiens, HCT-116, read-out: HCT-116 (p53 wild-type) IC50.

For `CC(C)(C)C[C@H]1N[C@@H](C(=O)NCC[C@H]2CC[C@H](N)C2)[C@H](c2cccc(Cl)c2F)[C@@]12C(=O)Nc1cc(Cl)c(F)cc12` [MI-767], the IC50 came to 900 ± 200 nM in data set [1] (setting [4]); 2200 ± 100 nM in data set [1] (setting [5]); 900 ± 600 nM in data set [1] (setting [6]); 2400 ± 1000 nM in data set [2] (setting [7]); 700 ± 200 nM in data set [2] (setting [8]).

As to `CC(C)(C)C[C@H]1N[C@@H](C(=O)N[C@H]2C[C@](C)(O)C2)[C@H](c2cccc(Cl)c2F)[C@@]12C(=O)Nc1cc(Cl)ccc12` [MI-519-65], the “cell growth inhibition (in words)” value in data set [1] is “effectively inhibit cancer cell growth”. Besides, the IC50 in data set [1] (setting [9]) and in data set [1] (setting [10]) was less than 3000 nM in each case.

Regarding `CC(C)(C)C[C@H]1N[C@@H](C(=O)NC2CC(OC(=O)CN)C2)[C@H](c2cccc(Cl)c2F)[C@@]12C(=O)Nc1cc(Cl)ccc12` (some centres unmarked) [MI-519-69], the IC50 in data set [1] (setting [4]) was less than 5000 nM; in data set [1] (setting [5]), greater than 10000 nM; in data set [1] (setting [6]) it was less than 5000 nM; in data set [2] (setting [7]), greater than 10000 nM; in data set [2] (setting [8]), less than 5000 nM.

In the case of `CC(C)(C)C[C@H]1N[C@@H](C(=O)NC2CCC(O)CC2)[C@H](c2cccc(Cl)c2F)[C@@]12C(=O)Nc1cc(F)c(F)cc12` (some centres unmarked) [MI-786], the IC50 in data set [1] (setting [11]) amounted to 800 nM.

For the compound `CNCC(=O)N1CCN(C(=O)[C@@H]2N[C@H](CC(C)(C)C)[C@]3(C(=O)Nc4cc(Cl)c(F)cc43)[C@H]2c2cccc(Cl)c2)CC1` [MI-747], the IC50 in data set [1] (setting [4]) is 1300 nM; in data set [1] (setting [5]), 3700 nM; in data set [2] (setting [7]), 3900 nM; in data set [2] (setting [8]), 1300 nM.

Turning to `CC(C)(C)CC1NC(C(=O)NCCN2CCOCC2)C(c2cccc(Cl)c2F)C12C(=O)Nc1cc(Cl)ccc12` (centres unmarked) [MI-63], the “% of compound remaining when incubated in rat liver microsomes” value (from here on “% of compound remaining when incubated”) in data set [3] (Table 16, 0 min) came to 100%; in data set [3] (Table 16, 4 min) it was 76%; in data set [3] (Table 16, 6 min), 57.9%; in data set [3] (Table 16, 10 min), 35.4%; in data set [3] (Table 16, 15 min), 27.7%; in data set [3] (Table 16, 30 min), 21%.

With `CC(C)(C)C[C@H]1N[C@@H](C(=O)NCC[C@H]2CC[C@@H](O)C2)[C@H](c2cccc(Cl)c2F)[C@@]12C(=O)Nc1cc(Cl)ccc12` [MI-753], the IC50 in data set [1] (setting [12]) stood at 3200 ± 300 nM; in data set [1] (Table 19B, PC3 cells, read-out: Inhibition of cell growth IC50, PC3), 24700 ± 2700 nM; in data set [2] (setting [13]) it was 2900 ± 100 nM; in data set [2] (read-out: Inhibition of cell growth IC50, HCT116 p53 KO, Table 19B, HCT116 p53 KO) it was 21800 ± 4900 nM.

Take `CC(C)(C)C[C@H]1N[C@@H](C(=O)NCCN2CCCC2)[C@H](c2cccc(Cl)c2F)[C@@]12C(=O)Nc1cc(Cl)c(F)cc12` [MI-763]: the “% of compound remaining when incubated” value in data set [3] (Table 17, 0 min) stood at 100%; in data set [3] (Table 17, 4 min), 96.8%; in data set [3] (Table 17, 6 min) it was 97.3%; in data set [3] (Table 17, 10 min), 85.6%; in data set [3] (Table 17, 15 min), 72.1%; in data set [3] (Table 17, 30 min) it was 61.5%. Besides, in data set [3] (rat liver microsomes), the “microsomal stability (in words)” value is “improved microsomal stability over MI-219”.

On to `CC(C)(C)C[C@H]1N[C@@H](C(=O)N[C@H]2CC[C@H](O)C2)[C@H](c2cccc(Cl)c2F)[C@@]12C(=O)Nc1cc(Cl)ccc12` [MI-519-51-epi], for which the IC50 is less than 2000 nM in data set [1] (setting [9]) and greater than 10000 nM in data set [1] (setting [14]).

With `CN1[C@@H](C(=O)NCCN2CCOCC2)[C@H](c2cccc(Cl)c2F)[C@@]2(C(=O)Nc3cc(F)c(F)cc32)[C@H]1CC(C)(C)C` [MI-722], the IC50 in data set [1] (setting [12]) is greater than 100000 nM; in data set [1] (Homo sapiens, PC-3, Table 19B, PC3 cells, read-out: Inhibition of cell growth IC50, PC3), greater than 100000 nM; in data set [2] (Homo sapiens, HCT-116, read-out: Inhibition of cell growth IC50, HCT116 p53 KO, Table 19B, HCT116 p53 KO), greater than 100000 nM; in data set [2] (setting [13]) it was greater than 100000 nM.

`CC(C)N1CCN(CCNC(=O)[C@@H]2N[C@H](CC(C)(C)C)[C@]3(C(=O)Nc4cc(Cl)ccc43)[C@H]2c2cccc(Cl)c2F)CC1` [MI-130]: the “% of compound remaining when incubated” value worked out at 100% in data set [3] (Table 16, 0 min); 77.2% in data set [3] (Table 16, 4 min); 60.1% in data set [3] (Table 16, 6 min); 48% in data set [3] (Table 16, 10 min); 42.3% in data set [3] (Table 16, 15 min); 34.1% in data set [3] (Table 16, 30 min).

As for `CC(C)(C)C[C@H]1N[C@@H](C(=O)N[C@H]2C[C@H](NS(C)(=O)=O)C2)[C@H](c2cccc(Cl)c2F)[C@@]12C(=O)Nc1cc(Cl)ccc12` [MI-519-61], the IC50 in data set [1] (setting [9]), in data set [1] (setting [10]) and in data set [2] (setting [15]) was less than 3000 nM in each case.

Take `CC(C)(C)C[C@@H]1N[C@@H](C(=O)N[C@H]2C[C@@](C)(O)C2)[C@H](c2cccc(Cl)c2F)[C@]12C(=O)Nc1cc(Cl)ccc12` [MI-519-6401]: the IC50 in data set [1] (setting [9]) was 300 nM; in data set [1] (setting [14]), 10500 nM; in data set [1] (setting [10]), 400 nM; in data set [2] (setting [15]), 100 nM.

As for `CC(C)(C)C[C@H]1N[C@@H](C(=O)NC2CCC(O)CC2)[C@H](c2cccc(Cl)c2F)[C@@]12C(=O)Nc1cc(F)c(F)cc12` (some centres unmarked) [MI-7104], the figures for the IC50 in data set [1] (read-out: LNCAP (p53 wild-type) IC50), in data set [1] (read-out: PC-3 (deleted p53) IC50) and in data set [1] (setting [11]) were less than 3000 nM, greater than 10000 nM and less than 3000 nM, respectively.

As for `CCN1CCN(CCNC(=O)C2NC(CC(C)(C)C)C3(C(=O)Nc4cc(Cl)ccc43)C2c2cccc(Cl)c2F)CC1` (centres unmarked) [MI-129], the “% of compound remaining when incubated” value is on record as 100% in data set [3] (Table 16, 0 min); 74.4% in data set [3] (Table 16, 4 min); 52.5% in data set [3] (Table 16, 6 min); 41.1% in data set [3] (Table 16, 10 min); 36.7% in data set [3] (Table 16, 15 min); 33.1% in data set [3] (Table 16, 30 min).

For the compound `CC(C)(C)C[C@H]1N[C@@H](C(=O)NC2CC(=O)C2)[C@H](c2cccc(Cl)c2F)[C@@]12C(=O)Nc1cc(Cl)ccc12` [MI-519-70], the IC50 in data set [1] (setting [4]) was less than 5000 nM; in data set [1] (setting [5]), greater than 10000 nM; in data set [1] (setting [6]), less than 5000 nM; in data set [2] (setting [7]), greater than 10000 nM; in data set [2] (setting [8]), less than 5000 nM.

As to `CC(C)(C)C[C@H]1N[C@@H](C(=O)NCC[C@H]2CC[C@H](NS(C)(=O)=O)C2)[C@H](c2cccc(Cl)c2F)[C@@]12C(=O)Nc1cc(Cl)c(F)cc12` [MI-766], the IC50 in data set [1] (setting [4]) was found to be 900 nM; in data set [1] (setting [5]), 5900 ± 2200 nM; in data set [1] (setting [6]), 1700 ± 1400 nM; in data set [2] (setting [7]), 6900 ± 1400 nM; in data set [2] (setting [8]), 700 nM.

`CC(C)(C)C[C@@H]1N[C@@H](C(=O)NC2CCC(O)CC2)[C@H](c2cccc(Cl)c2F)[C@]12C(=O)Nc1cc(Cl)ccc12` (some centres unmarked) [MI-77301]: the IC50 in data set [1] (setting [9]) was determined as 100 nM; in data set [1] (setting [14]) it was 13000 nM; in data set [1] (setting [10]), 800 nM; in data set [2] (setting [8]), 100 nM.

Take `CC(C)(C)C[C@H]1N[C@@H](C(=O)NCCCCN2CCCC2)[C@H](c2cccc(Cl)c2F)[C@@]12C(=O)Nc1cc(Cl)c(F)cc12` [MI-765]: the IC50 in data set [1] (setting [4]) stood at 1500 ± 900 nM; in data set [1] (setting [5]), 2600 ± 200 nM; in data set [1] (setting [6]), 1400 ± 100 nM; in data set [2] (setting [7]), 4700 ± 2000 nM; in data set [2] (setting [8]) it was 1100 ± 200 nM.

On to `CC(C)(C)C[C@H]1N[C@@H](C(=O)NC2CCN(CC(F)F)CC2)[C@H](c2cccc(Cl)c2F)[C@@]12C(=O)Nc1cc(Cl)ccc12` [MI-519-66], for which the IC50 in data set [1] (Homo sapiens, LNCaP, Table 19D, LNCaP cells, read-out: LNCaP IC50) is less than 3000 nM; in data set [1] (Homo sapiens, PC-3, Table 19D, PC3 cells, read-out: PC3 IC50), 6890 nM; in data set [1] (Homo sapiens, Table 19D, SJSA-1 cells, unit inferred, read-out: SJSA-1), less than 3000 nM; in data set [2] (Homo sapiens, HCT-116, read-out: HCT116p53KO IC50, Table 19D, HCT116 p53KO) it was 5510 nM; in data set [2] (Homo sapiens, HCT-116, read-out: HCT116p53WT IC50, Table 19D, HCT116 p53WT) it was less than 2000 nM.

As for `CC(C)(C)C[C@@H]1N[C@@H](C(=O)NC2CCC(O)CC2)[C@H](c2cccc(F)c2F)[C@]12C(=O)Nc1cc(Cl)ccc12` (some centres unmarked) [MI-710201], in data set [2] (setting [15]), the IC50 was found to be 300 nM.

Take `CC(C)(C)C[C@H]1N[C@@H](C(=O)NCCNS(C)(=O)=O)[C@H](c2cccc(Cl)c2F)[C@@]12C(=O)Nc1cc(Cl)c(F)cc12` [MI-769]: the IC50 was 1500 nM in data set [1] (setting [4]); 13000 nM in data set [1] (setting [5]); 600 nM in data set [1] (setting [6]); 10200 nM in data set [2] (setting [7]); 1600 nM in data set [2] (setting [8]).

`CC(C)(C)C[C@H]1N[C@@H](C(=O)NCCCNS(C)(=O)=O)[C@H](c2cccc(Cl)c2F)[C@@]12C(=O)Nc1cc(Cl)c(F)cc12` [MI-768]: the IC50 turned out to be 700 ± 200 nM in data set [1] (setting [4]); 7300 ± 800 nM in data set [1] (setting [5]); 800 ± 100 nM in data set [1] (setting [6]); 9800 ± 400 nM in data set [2] (setting [7]); 500 ± 200 nM in data set [2] (setting [8]).

Source of the values: patent US9079913B2, “Spiro-oxindole MDM2 antagonists” (The Regents of the University of Michigan, priority 2009, dated 2015).
